The assay has as its target recombinant eIF4E (Homo sapiens (Human), UniProt P06730). The experiment in a line: Fluorescence polarization competition assay for eIF4E binding potency. An outline of the steps:
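Competition of test compound against 20 nM EDA-m^7GDP-ATTO-550 for 75 nM recombinant eIF4E, pre-incubated 5 min, in 20 mM Tris pH 7.5, 100 mM NaCl, 1 mM DTT, 0.02% Tween-20, 1% DMSO. Equilibrated 30 min at room temperature, dark; fluorescence polarization read. IC50 from 8-point, 3-fold dilution series.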
Background: Polarisation of emitted light reports the rotation of a fluorescent probe.

The mark [1] stands for this setting: fluorescence polarization competition, 75 nM recombinant eIF4E, 20 nM EDA-m7GDP-ATTO-550, IC50 class, read-out: elF4E FP.
The mark [2] stands for this setting: inhibition of eIF4E/EDA-m7GDP-ATTO-550 binding by 50%, Table 4B calculated values, read-out: IC50.
Setting [3] is: inhibition of eIF4E/EDA-m7GDP-ATTO-550 binding, calculated IC50 values, Table 4B, read-out: IC50.

Where two headings read alike, the source gives them in different places. Bounds are passed on as bounds.

recombinant eIF4E, sequence (P06730 whole entry): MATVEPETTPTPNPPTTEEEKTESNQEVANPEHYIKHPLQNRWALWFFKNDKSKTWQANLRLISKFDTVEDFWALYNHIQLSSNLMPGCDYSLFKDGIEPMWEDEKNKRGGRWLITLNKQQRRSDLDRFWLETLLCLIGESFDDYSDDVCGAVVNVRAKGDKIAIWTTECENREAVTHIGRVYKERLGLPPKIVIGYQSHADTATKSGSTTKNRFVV

For `Cc1cc(-c2cc(Cl)ccc2OCCn2c(C)nc3cc(C(F)(F)F)c(CC(=O)N(C)C)c(C#N)c3c2=O)c2scc(C(=O)O)c2n1` [compound 909], the IC50 under setting [1] is less than 50 nM and the IC50 under setting [2] was 13.2 nM.

Consider `Cc1cc(-c2cc(Cl)ccc2OCCn2c(C)nc3cnc(N4CCC(O)C4)c(C#N)c3c2=O)c2scc(C(=O)O)c2n1` (centres unmarked) [compound 1056], for which the IC50 under setting [1] is less than 50 nM and the IC50 under setting [2] was 16.1 nM.

As for `Cc1nc2cnc(C3CC3)c(C#N)c2c(=O)n1CCOc1ccc(Cl)cc1Cc1cc(C(=O)O)cs1` [compound 970], the IC50 under setting [1] lay in the range of 50 to 1000 nM and the IC50 under setting [2] is 166 nM.

Regarding `Cc1nc2cnc(CCCN(C)CCF)c(C#N)c2c(=O)n1CCOc1ccc(Cl)cc1-c1ccnc2c(C(=O)O)csc12` [compound 1345], the IC50 under setting [3] is 34.5 nM.

Regarding `Cc1ccc(-c2cc(Cl)ccc2OCCn2c(C)nc3ccc(CCN(C)C)c(C#N)c3c2=O)c2scc(C(=O)O)c12` [compound 576], the IC50 is less than 50 nM under setting [1] and 17.7 nM under setting [2].

Consider `N#Cc1cccc2nc(C(F)F)n(CCOc3ccc(Cl)cc3-c3cccc(C(=O)O)c3)c(=O)c12` [compound 1986], for which, under setting [3], the IC50 was 78.5 nM.

`Cc1nc2cc(C(F)F)cc(C#N)c2c(=O)n1CCOc1ccc(Cl)cc1-c1cccc(C(=O)O)c1` [compound 153]: the IC50 was 50 to 1000 nM under setting [1] and 54 nM under setting [2].

As for `Cc1nc2cnc(N(C)[C@H]3CC[C@H](N4CC(F)(F)C4)CC3)c(C#N)c2c(=O)n1CC#Cc1ccc(Cl)cc1-c1ccnc2c(C(=O)O)csc12` [compound 1099], the IC50 under setting [1] is less than 50 nM.

`Cc1nc2cnc(N3CCN(CCOC(F)F)CC3)c(C#N)c2c(=O)n1CC#Cc1ccc(Cl)cc1-c1ccnc2c(C(=O)O)csc12` [compound 1464]: under setting [3], the IC50 is 13.4 nM.

For `Cc1cc(-c2cc(Cl)ccc2OCCn2c(C)nc3cc(C(F)(F)F)c(-c4cnn(C)c4C)c(C#N)c3c2=O)c2scc(C(=O)O)c2n1` [compound 1032], the IC50 runs as follows: under setting [1], less than 50 nM; under setting [2], 6.2 nM.

As for `Cc1nc2cnc(C3(F)CCN(C)CC3)c(C#N)c2c(=O)n1CCOc1ccc(Cl)cc1-c1ccnc2c(C(=O)O)csc12` [compound 1264], under setting [3], the IC50 was 12.4 nM.

Turning to `Cc1nc2cc(C(F)(F)F)c(N3CCN(CCO)CC3)c(C#N)c2c(=O)n1CCOc1ccc(Cl)cc1-c1ccnc2ccsc12` [compound 852], the IC50 by setting is: under setting [1], less than 50 nM; under setting [2], 21.4 nM.

Turning to `Cc1cc(-c2cc(Cl)ccc2OCCn2c(C)nc3cc(C(F)(F)F)c(-c4cc(F)cnc4C)c(C#N)c3c2=O)c2scc(C(=O)OCCN3CCCC3)c2n1` [compound 1081], the IC50 reads like this: under setting [1], more than 1000 nM; under setting [2], 1040 nM.

As for `Cc1nc2cc(C(F)(F)F)cc(C#N)c2c(=O)n1CCOc1ccc(Cl)cc1-c1cc(CN)nc2c(C(=O)O)csc12` [compound 452], the IC50 is, setting by setting: under setting [1], less than 50 nM; under setting [2], 46.6 nM.

As to `Cc1cc(-c2cc(Cl)ccc2OCCn2c(C)nc3c(C)nc(CN(C)C)cc3c2=O)c2scc(C(=O)O)c2n1` [compound 1959], under setting [3], the IC50 was 46.3 nM.

Consider `Cc1cc(-c2cc(Cl)ccc2OCCn2c(C)nc3cc(Cl)c(N4CC(F)(F)C4)c(C#N)c3c2=O)c2scc(C(=O)O)c2n1` [compound 688], for which the IC50 runs as follows: under setting [1], less than 50 nM; under setting [2], 22.8 nM.

In the case of `COCc1cc(-c2cc(Cl)ccc2OCCn2c(C)nc3cc(C(F)(F)F)c(CN4CCN(C)CC4)c(C#N)c3c2=O)c2scc(C(=O)O)c2n1` [compound 489], the IC50 under setting [1] was less than 50 nM.

For `Cc1cc(-c2cc(Cl)ccc2OCCn2c(C)nc3cc(C(F)(F)F)c(-c4cnc(C(F)F)cn4)nc3c2=O)c2scc(C(=O)O)c2n1` [compound 1020], the IC50 under setting [1] is less than 50 nM and the IC50 under setting [2] is 23.4 nM.

Take `Cc1cc(-c2cc(Cl)ccc2OCCn2c(C)nc3cc(C(F)(F)F)c(-c4nc(C(F)F)ccc4F)c(C#N)c3c2=O)c2scc(C(=O)O)c2n1` [compound 995]: the IC50 was less than 50 nM under setting [1] and 15.7 nM under setting [2].

As for `Cc1nc2cnc(N3CCN(CCF)CC3)c(C#N)c2c(=O)n1CC#Cc1ccc(Cl)cc1-c1ccnc2c(C(=O)NS(C)(=O)=O)csc12` [compound 1488], the IC50 under setting [3] is 12.3 nM.

Turning to `Cc1cc(-c2cc(Cl)ccc2OCCn2c(C)nc3cc(C(F)(F)F)c(CC4CCN(C)CC4)c(C#N)c3c2=O)c2scc(C(=O)O)c2n1` [compound 713], the IC50 under setting [1] was less than 50 nM and the IC50 under setting [2] is 31.4 nM.

Regarding `Cc1cc(-c2cc(Cl)ccc2OCCn2c(C)nc3ccc(C(F)(F)CN(C)C)c(C#N)c3c2=O)c2scc(C(=O)O)c2n1` [compound 529], the IC50 under setting [1] is less than 50 nM and the IC50 under setting [2] was 5.78 nM.

Turning to `Cc1nc2cccc(C#N)c2c(=O)n1CCOc1ccc(Cl)cc1-c1cccc(C(=O)O)c1` [compound 1147], the IC50 reads like this: under setting [1], less than 50 nM; under setting [2], 44.6 nM.

In the case of `O=C(O)c1cccc(-c2cc(Cl)ccc2OCCn2ccc3ncccc3c2=O)c1` [compound 10], the IC50 is more than 1000 nM under setting [1] and 6510 nM under setting [2].

Turning to `Cc1nc2cnc(N(C)C3CCN(C4CC4)CC3)c(C#N)c2c(=O)n1CC#Cc1ccc(Cl)cc1-c1ccnc2c(C(=O)O)csc12` [compound 1171], the IC50 is less than 50 nM under setting [1] and 13 nM under setting [2].

For `Cc1nc2cnc(N(C)C3CCN(C)CC3)c(C#N)c2c(=O)n1CC#Cc1ccc(Cl)cc1-c1ccnc2c(C(=O)O)csc12` [compound 1495], the IC50 under setting [3] is 7.09 nM.

As to `Cc1nc2c(S(=O)(=O)N(C)C)ccc(C#N)c2c(=O)n1CCOc1ccc(Cl)cc1-c1ccnc2c(C(=O)O)csc12` [compound 237], the IC50 under setting [1] lay in the range of 50 to 1000 nM and the IC50 under setting [2] was 54.8 nM.

`Cc1cc(-c2cc(Cl)ccc2OCCn2c(C)nc3c(C)nc(-c4cc(F)ccc4C)c(C#N)c3c2=O)c2scc(C(=O)O)c2n1` [compound 927]: the IC50 under setting [1] was less than 50 nM and the IC50 under setting [2] was 6.34 nM.

As for `Cc1cc(-c2cc(Cl)ccc2OCCn2c(C)nc3c(-c4ccccc4)nc(N4CCN(C)CC4)c(C#N)c3c2=O)c2scc(C(=O)O)c2n1` [compound 1217], the IC50 was less than 50 nM under setting [1] and 24.2 nM under setting [3].

Take `Cc1cc(-c2cc(Cl)ccc2OCCn2c(C)nc3c(F)cc(C(F)F)c(C#N)c3c2=O)c2scc(C(=O)O)c2n1` [compound 587]: the IC50 is, setting by setting: under setting [1], less than 50 nM; under setting [2], 25.5 nM.

Turning to `Cc1cc(-c2cc(Cl)c(F)cc2OCCn2c(C)nc3cc(C(F)(F)F)cc(C#N)c3c2=O)c2scc(C(=O)O)c2n1` [compound 571], the IC50 by setting is: under setting [1], 50 to 1000 nM; under setting [2], 54.8 nM.

In the case of `Cc1nc2cnc(N3CCN(CC(C(F)(F)F)C(F)(F)F)CC3)c(C#N)c2c(=O)n1CCOc1ccc(Cl)cc1-c1ccnc2c(C(=O)O)csc12` [compound 1359], the IC50 under setting [3] was 39.7 nM.

In the case of `Cc1nc2cc(C(F)(F)F)cc(C#N)c2c(=O)n1CCOc1[nH]c(=O)c(Cl)cc1-c1ccnc2c(C(=O)O)csc12` [compound 356], the IC50 by setting is: under setting [1], more than 1000 nM; under setting [2], 1220 nM.

`C#Cc1c(C(=O)O)cccc1-c1cc(Cl)ccc1OCCn1c(C(F)F)nc2cccc(C#N)c2c1=O` [compound 165]: the IC50 reads like this: under setting [1], 50 to 1000 nM; under setting [2], 106 nM.

In the case of `Cc1nc2ccc(Cl)c(C#N)c2c(=O)n1CCOc1ccc(Cl)cc1-c1ccnc2c(C(=O)O)csc12` [compound 244], the IC50 is, setting by setting: under setting [1], less than 50 nM; under setting [2], 31.2 nM.

For the molecule `Cc1nc2cnc(N3CC4(CCN4CC(F)F)C3)c(C#N)c2c(=O)n1CCOc1ccc(Cl)cc1-c1ccnc2c(C(=O)O)csc12` [compound 1634], the IC50 under setting [3] is 17.4 nM.

On to `Cc1nc2cnc(N(C)CCN(C)CC(F)(F)F)c(C#N)c2c(=O)n1CC#Cc1ccc(Cl)cc1-c1ccnc2c(C(=O)O)csc12` [compound 1491], for which the IC50 under setting [3] was 29 nM.

As to `Cc1nc2cnc(N(C)C3CCN(C)C(C(F)F)C3)c(C#N)c2c(=O)n1CCOc1ccc(Cl)cc1-c1ccnc2c(C(=O)O)csc12` (centres unmarked) [compound 866], the IC50 under setting [1] is less than 50 nM and the IC50 under setting [2] is 16.8 nM.

Take `Cc1nc2cnc(N(C)C3CCN(C4CC(F)(F)C4)CC3)c(C#N)c2c(=O)n1CC#Cc1ccc(Cl)cc1-c1ccnc2c(C(=O)NS(=O)(=O)CCC#N)csc12` [compound 1826]: under setting [3], the IC50 was 18.4 nM.

For `Cc1nc2cnc(N3CCC(O)C3)c(C#N)c2c(=O)n1CCOc1ccc(Cl)cc1-c1ccnc2ccsc12` (centres unmarked) [compound 1258], under setting [3], the IC50 is 61.5 nM.

Turning to `O=C(O)c1cccc(-c2cc(Cl)ccc2OCCn2cnc3cc(F)c(F)cc3c2=O)c1` [compound 77], the IC50 reads like this: under setting [1], more than 1000 nM; under setting [2], 1440 nM.

For the molecule `Cc1nc2cnc(N(C)C3CCN(CC(F)(F)F)CC3)c(C#N)c2c(=O)n1CC#Cc1ccc(Cl)cc1-c1ccnc2c(C(=O)NS(=O)(=O)c3cscn3)csc12` [compound 1675], the IC50 under setting [3] was 4.11 nM.

`Cc1nc2cnc(N(C)[C@H]3C[C@H](N(C)CCF)C3)c(C#N)c2c(=O)n1CC#Cc1ccc(Cl)cc1-c1ccnc2c(C(=O)O)csc12` [compound 1532]: the IC50 under setting [3] was 11.2 nM.

Consider `Cc1cc(-c2cc(Cl)ccc2OCCn2c(C)nc3cc(C(F)(F)F)c(CCN(C)C)c(C#N)c3c2=O)c2sc(C)c(C(=O)O)c2n1` [compound 1200], for which the IC50 is less than 50 nM under setting [1] and 14.8 nM under setting [3].

Take `Cc1cc(-c2cc(Cl)ccc2OCCn2c(C)nc3c(C)nc(-c4cc(F)cnc4C)c(C#N)c3c2=O)c2scc(C(=O)O)c2n1` [compound 441]: the IC50 under setting [1] is less than 50 nM and the IC50 under setting [2] is 20.4 nM.

As for `CCc1cc(-c2cc(Cl)ccc2OCCn2c(C)nc3cc(C(F)(F)F)c(N4CCN(C)CC4)c(C#N)c3c2=O)c2sc(C)c(C(=O)O)c2n1` [compound 1087], the IC50 was less than 50 nM under setting [1] and 39.2 nM under setting [2].

Consider `Cc1nc2cnc(N3CCN(CC(F)F)CC3)c(C#N)c2c(=O)n1CC#Cc1ccc(Cl)cc1-c1ccnc2c(C(=O)NS(C)(=O)=O)csc12` [compound 1487], for which the IC50 under setting [3] was 25.4 nM.
